Source: patent US12404239B2, “Modulators of BCL6 as ligand directed degraders” (Celgene Corporation, priority 2022, dated 2025)

Columns and labels:
[1] = target: T1, BCL6 (Homo sapiens, UniProt P41182); assay: 24 h degradation assay (BCL6 HiBiT); type: cell-based; settings: read-out: YCon (% remaining maximal effect)
T1 construct: HiBiT-tag knocked into endogenous BCL6 locus using CRISPR; endogenous in cells; host or cells: DHL-4_BCL6_HiBiT cells (CRISPR knock-in)
Description: A DHL-4 cell line with HiBiT-tag knocked into endogenous BCL6 locus using CRISPR was generated. The DHL-4_BCL6_HiBiT cells were dispensed into 384-well plates (Corning no. 3570) that were pre-spotted with compounds. Compounds were dispensed by an acoustic dispenser (ATS acoustic transfer system from EDC Biosystems) into a 384-well plate in a 10-point dose response curve using 3-fold dilutions starting at 1-10 μM and going down to 0.0015-0.00015 μM. 25 μL of media (RPMI-1640+10% heat inactivated FBS+1×Pen/Strep) containing 2500 of DHL-4 was dispensed per well. […] After incubation, 25 μL of the Nano-Glo HiBiT lytic detection working solution (Promega, catalogue no. N3040, Madison, WI) was added to each well and incubated at room temperature for 15-30 min, protected from light. After 30 min, luminescence was read on an Envision or PHERAstar luminescence reader. To determine the EC50 value (the half-maximum effective concentration) and the level of the gradation (Yconstant) of a BCL6 degrader, luminescent signal normalized by DMSO control (Y) and compound concentration (x) was fitted using a four-parameter dose-response model (Y=(A+((B−A)/1+((C/x)^D) in Dotmatics. Fitted value C is the degradation EC50 and the minimum value A is the Y constant.

[2] = target: T1, BCL6; assay: BCL6_HiBiT degradation assay (2 h); type: cell-based; settings: DHL-4_BCL6_HiBiT cells, read-out: YCon (% remaining maximal effect)
In short: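 DHL-4 cells carrying CRISPR HiBiT knock-in at endogenous BCL6, treated 2 h at 37 °C with 10-point 3-fold dilutions from 1-10 μM. BCL6 level read by Nano-Glo HiBiT lytic luminescence normalized to DMSO; four-parameter fit gives degradation EC50 and Yconstant (% remaining at maximal effect).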

Compound: C[C@@H]1C[C@H](N(C)c2ncc(Cl)c(Nc3ccc4c(c3)CC(=O)N4C)n2)CC(=O)N1c1ccc2c(C3CCC(=O)NC3=O)nn(C)c2c1 (stereo partly drawn) [Example 150, 3-(6-((2R,4S)-4-((5-chloro-4-((1-methyl-2-oxoindolin-5-yl)amino)pyrimidin-2-yl)(methyl)amino)-2-methyl-6-oxopiperidin-1-yl)-1-methyl-1H-indazol-3-yl) piperidine-2,6-dione]
- Emax [1]: 20 to 60%

Compound: CO[C@@H]1CN(c2ncc(C#N)c(Nc3ccc4c(c3)CC(=O)N4C)n2)CC[C@H]1Nc1ccc2c(C3CCC(=O)NC3=O)nn(C)c2c1 (stereo partly drawn) [Example 145, 2-((3R,4R)-4-((3-(2,6-dioxopiperidin-3-yl)-1-methyl-1H-indazol-6-yl)amino)-3-methoxypiperidin-1-yl)-4-((1-methyl-2-oxoindolin-5-yl)amino) pyrimidine-5-carbonitrile]
- Emax [1]: 20 to 60%

Compound: C[C@H]1C[C@H](N(C)c2ncc(Cl)c(Nc3ccc4c(c3)CC(=O)N4C)n2)CC(=O)N1c1ccc2c(C3CCC(=O)NC3=O)nn(C)c2c1 (stereo partly drawn) [Example 153, 3-(6-((2S,4S)-4-((5-chloro-4-((1-methyl-2-oxoindolin-5-yl)amino)pyrimidin-2-yl)(methyl)amino)-2-methyl-6-oxopiperidin-1-yl)-1-methyl-1H-indazol-3-yl) piperidine-2,6-dione]
- Emax [1]: < 20%

Compound: C[C@@H]1C[C@@H](N(C)c2ncc(Cl)c(Nc3ccc4c(c3)CC(=O)N4C)n2)CC(=O)N1c1ccc2c(C3CCC(=O)NC3=O)nn(C)c2c1 (stereo partly drawn) [Example 151, 3-(6-((2R,4R)-4-((5-chloro-4-((1-methyl-2-oxoindolin-5-yl)amino)pyrimidin-2-yl)(methyl)amino)-2-methyl-6-oxopiperidin-1-yl)-1-methyl-1H-indazol-3-yl) piperidine-2,6-dione]
- Emax [1]: < 20%

Compound: Cn1nc(C2CCC(=O)NC2=O)c2ccc(N3CCC(Nc4ncc(Cl)c(Nc5ccc6c(c5)N(CCC(C)(C)O)C(=O)C6)n4)CC3)cc21 (stereo not drawn) [Example 8, 3-(6-(4-((5-chloro-4-((1-(3-hydroxy-3-methylbutyl)-2-oxoindolin-6-yl)amino)pyrimidin-2-yl)amino)piperidin-1-yl)-1-methyl-1H-indazol-3-yl)piperidine-2,6-dione]
- Percent BCL6 remaining at maximal degradation (Ycon) [2]: > 60%

Compound: CNCCN1C(=O)Cc2cc(Nc3nc(N4CC[C@@H](Nc5ccc6c(C7CCC(=O)NC7=O)nn(C)c6c5)[C@H](C)C4)ncc3Cl)ccc21 (stereo partly drawn) [Example 104, 3-(6-(((3R,4R)-1-(5-chloro-4-((1-(2-(methylamino)ethyl)-2-oxoindolin-5-yl)amino)pyrimidin-2-yl)-3-methylpiperidin-4-yl)amino)-1-methyl-1H-indazol-3-yl)piperidine-2,6-dione]
- Percent BCL6 remaining at maximal degradation (Ycon) [2]: < 20%

Compound: C[C@H]1C[C@@H](Nc2ccc3c(C4CCC(=O)NC4=O)nn(C)c3c2)CCN1c1ncc(Cl)c(Nc2ccc3c(c2)CC(=O)N3C)n1 (stereo partly drawn) [Example 19, 3-(6-(((2S,4S)-1-(5-chloro-4-((1-methyl-2-oxoindolin-5-yl)amino)pyrimidin-2-yl)-2-methylpiperidin-4-yl)amino)-1-methyl-1H-indazol-3-yl)piperidine-2,6-dione]
- Percent BCL6 remaining at maximal degradation (Ycon) [2]: 20 to 60%

Compound: C[C@H]1C[C@@H](N(C)c2ncc(Cl)c(Nc3ccc4c(c3)CC(=O)N4C)n2)CC(=O)N1c1ccc2c(C3CCC(=O)NC3=O)nn(C)c2c1 (stereo partly drawn) [Example 152, 3-(6-((2S,4R)-4-((5-chloro-4-((1-methyl-2-oxoindolin-5-yl)amino)pyrimidin-2-yl)(methyl)amino)-2-methyl-6-oxopiperidin-1-yl)-1-methyl-1H-indazol-3-yl) piperidine-2,6-dione]
- Emax [1]: > 60%

Compound: C[C@@H]1CN(c2ncc(Cl)c(Nc3ccc4c(c3)C(F)(F)C(=O)N4C)n2)CC[C@H]1Nc1ccc2c(C3CCC(=O)NC3=O)nn(C)c2c1 (stereo partly drawn) [Example 56, 3-(6-(((3R,4R)-1-(5-chloro-4-((3,3-difluoro-1-methyl-2-oxoindolin-5-yl)amino)pyrimidin-2-yl)-3-methylpiperidin-4-yl)amino)-1-methyl-1H-indazol-3-yl)piperidine-2,6-dione]
- Percent BCL6 remaining at maximal degradation (Ycon) [2]: < 20%
